Assay results published in patent US9828379B2 (priority 2013, dated 2017).

Key:
[1] = target: T1, MAGL (Mus musculus, UniProt O35678); assay: In vitro competitive activity-based protein profiling (Table 2, % inhibition at 1 μM); format: biochemical; settings: read-out: % Inhibition at 1 μM MAGL
T1 sequence (O35678 1-303): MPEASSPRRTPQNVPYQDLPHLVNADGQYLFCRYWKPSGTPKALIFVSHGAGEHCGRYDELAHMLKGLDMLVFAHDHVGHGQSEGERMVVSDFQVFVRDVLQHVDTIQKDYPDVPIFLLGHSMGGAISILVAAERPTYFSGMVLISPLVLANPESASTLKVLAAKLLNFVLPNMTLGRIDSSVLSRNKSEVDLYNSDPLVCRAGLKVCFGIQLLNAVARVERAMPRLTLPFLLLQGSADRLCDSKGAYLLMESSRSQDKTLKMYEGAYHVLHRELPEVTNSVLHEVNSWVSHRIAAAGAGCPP
Procedure: After 30 min, FP—Rh (1.0 μL, 50 μM in DMSO) was added and the mixture was incubated for another 30 min at 37° C. Reactions were quenched with SDS loading buffer (50 μL-4×) and run on SDS-PAGE.
Cell lysates were diluted with mock proteomes for use in competitive ABPP experiments.

[2] = target: T2, ABHD6 (Mus musculus, UniProt Q8R2Y0); assay: biochemical; settings: in vitro competitive ABPP
T2 sequence (Q8R2Y0 1-336): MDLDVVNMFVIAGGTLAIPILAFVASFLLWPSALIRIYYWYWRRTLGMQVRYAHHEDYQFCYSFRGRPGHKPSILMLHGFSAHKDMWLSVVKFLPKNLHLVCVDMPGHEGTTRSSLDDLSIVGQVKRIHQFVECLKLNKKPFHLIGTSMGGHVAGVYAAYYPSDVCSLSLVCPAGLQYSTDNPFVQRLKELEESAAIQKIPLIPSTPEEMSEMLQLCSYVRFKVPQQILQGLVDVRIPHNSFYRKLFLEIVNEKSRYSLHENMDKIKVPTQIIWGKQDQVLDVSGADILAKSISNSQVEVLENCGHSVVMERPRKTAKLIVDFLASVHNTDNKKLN

[3] = target: T3, FAAH (Mus musculus, UniProt O08914); assay: biochemical; settings: in vitro competitive ABPP
T3 sequence (O08914 1-579): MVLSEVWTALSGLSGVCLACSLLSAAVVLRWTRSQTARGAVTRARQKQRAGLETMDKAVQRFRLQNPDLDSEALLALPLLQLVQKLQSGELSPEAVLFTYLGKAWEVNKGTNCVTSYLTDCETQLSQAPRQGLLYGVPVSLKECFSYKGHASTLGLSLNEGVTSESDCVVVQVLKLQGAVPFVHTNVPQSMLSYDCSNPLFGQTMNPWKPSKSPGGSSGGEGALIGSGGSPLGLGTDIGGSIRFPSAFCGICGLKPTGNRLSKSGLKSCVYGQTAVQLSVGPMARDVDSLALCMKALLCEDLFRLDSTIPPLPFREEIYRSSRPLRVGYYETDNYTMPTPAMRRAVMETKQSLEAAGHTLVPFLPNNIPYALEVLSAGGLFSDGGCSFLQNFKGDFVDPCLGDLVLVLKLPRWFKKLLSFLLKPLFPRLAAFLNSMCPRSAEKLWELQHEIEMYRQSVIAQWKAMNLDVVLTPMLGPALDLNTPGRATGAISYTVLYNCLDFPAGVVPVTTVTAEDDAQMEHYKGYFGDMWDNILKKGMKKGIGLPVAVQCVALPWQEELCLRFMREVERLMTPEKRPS

[4] = target: T2, ABHD6; assay: In vitro competitive activity-based protein profiling (Table 2, % inhibition at 1 μM); format: biochemical; settings: read-out: % Inhibition at 1 μM ABHD6
[5] = target: T3, FAAH; assay: as above; format: biochemical; settings: read-out: % Inhibition at 1 μM FAAH
[6] = target: T1, MAGL; assay: biochemical; settings: mouse; in vitro competitive ABPP; read-out: Mouse (IC50 value, nM) MAGL

In the case of `O=C(OC(C(F)(F)F)C(F)(F)F)N1CC2CN(Cc3ccc(N4CCOCC4)cc3Cl)CC2C1` (stereo not drawn) [Example 2, 1,1,1,3,3,3-Hexafluoropropan-2-yl 5-(2-chloro-4-morpholinobenzyl)hexahydropyrrolo[3,4-c]pyrrole-2(1H)-carboxylate], the inhibition at 1 µM [1] was > 75%, the IC50 [2] was 1000 to 10000 nM and the IC50 [3] was 100 to 1000 nM. For the same compound, the inhibition at 1 µM [4] was < 25%, the inhibition at 1 µM [5] was 25 to 75% and the IC50 [6] was < 100 nM.
With `Cc1c(CN2CC3CN(C(=O)ON4C(=O)CCC4=O)CC3C2)cccc1N1CCC(F)(F)CC1` (stereo not drawn) [Example 144, 2,5-dioxopyrrolidin-1-yl 5-[[3-(4,4-difluoropiperidin-1-yl)-2-methylphenyl]methyl]-octahydropyrrolo[3,4-c]pyrrole-2-carboxylate] the inhibition at 1 µM [1] was > 75%, the IC50 [2] was 1000 to 10000 nM and the IC50 [3] was 100 to 1000 nM. For the same compound, the inhibition at 1 µM [4] was < 25%, the inhibition at 1 µM [5] was > 75% and the IC50 [6] was < 100 nM.
For `O=C(OC(C(F)(F)F)C(F)(F)F)N1CC2CN(Cc3cc(CN4CCOCC4)cc(OC(F)(F)F)c3)CC2C1` (stereo not drawn) [Example 183, 1,1,1,3,3,3-hexafluoropropan-2-yl 5-(3-(morpholinomethyl)-5-(trifluoromethoxy)benzyl)hexahydropyrrolo[3,4-c]pyrrole-2(1H)-carboxylate], the inhibition at 1 µM [1] was > 75%, the IC50 [2] was 1000 to 10000 nM and the IC50 [3] was 1000 to 10000 nM. The inhibition at 1 µM [4] was < 25%, the inhibition at 1 µM [5] was < 25% and the IC50 [6] was 100 to 1000 nM.
`O=C(OC(C(F)(F)F)C(F)(F)F)N1CC2CN(Cc3ccc(C(=O)N4CCCCC4)c(OC(F)(F)F)c3)CC2C1` (stereo not drawn) [Example 192, 1,1,1,3,3,3-hexafluoropropan-2-yl 5-(4-(piperidine-1-carbonyl)-3-(trifluoromethoxy)benzyl)hexahydropyrrolo[3,4-c]pyrrole-2(1H)-carboxylate] was tested, and the inhibition at 1 µM [1] was > 75%, the IC50 [2] was 1000 to 10000 nM and the IC50 [3] was > 10000 nM. The inhibition at 1 µM [4] was 25 to 75%, the inhibition at 1 µM [5] was < 25% and the IC50 [6] was 100 to 1000 nM.
`CC(=O)N1CCC(c2nn(C(C)C)cc2CN2CC3CN(C(=O)OC(C(F)(F)F)C(F)(F)F)CC3C2)CC1` (stereo not drawn) [Example 55, 1,1,1,3,3,3-Hexafluoropropan-2-yl 5-[[3-(1-acetylpiperidin-4-yl)-1-(propan-2-yl)-1H-pyrazol-4-yl]methyl]-octahydropyrrolo[3,4-c]pyrrole-2-carboxylate] was tested, and the inhibition at 1 µM [1] was > 75%, the IC50 [2] was 1000 to 10000 nM and the IC50 [3] was > 10000 nM. For the same compound, the inhibition at 1 µM [4] was < 25%, the inhibition at 1 µM [5] was < 25% and the IC50 [6] was 100 to 1000 nM.
`CCn1ncc(CN2CC3CN(C(=O)OC(C(F)(F)F)C(F)(F)F)CC3C2)c1C(=O)NCC1CCOCC1` (stereo not drawn) [Example 181, 1,1,1,3,3,3-hexafluoropropan-2-yl 5-((1-ethyl-5-(((tetrahydro-2H-pyran-4-yl)methyl)carbamoyl)-1H-pyrazol-4-yl)methyl)hexahydropyrrolo[3,4-c]pyrrole-2(1H)-carboxylate] was tested, and the inhibition at 1 µM [1] was > 75%, the IC50 [2] was 100 to 1000 nM and the IC50 [3] was > 10000 nM. For the same compound, the inhibition at 1 µM [4] was 25 to 75%, the inhibition at 1 µM [5] was < 25% and the IC50 [6] was < 100 nM.
In the case of `O=C(OC(C(F)(F)F)C(F)(F)F)N1CC2CN(Cc3ccc(Cl)cc3N3CCn4ccnc4C3)CC2C1` (stereo not drawn) [Example 33, 1,1,1,3,3,3-Hexafluoropropan-2-yl 5-[(4-chloro-2-[5H,6H,7H,8H-imidazo[1,2-a]pyrazin-7-yl]phenyl)methyl]-octahydropyrrolo[3,4-c]pyrrole-2-carboxylate], the inhibition at 1 µM [1] was > 75%, the IC50 [2] was 1000 to 10000 nM and the IC50 [3] was 1000 to 10000 nM. The inhibition at 1 µM [4] was 25 to 75%, the inhibition at 1 µM [5] was 25 to 75% and the IC50 [6] was < 100 nM.
`Cc1cccc(CN2CC3CN(C(=O)OC(C(F)(F)F)C(F)(F)F)CC3C2)c1N1CCN(C)CC1` (stereo not drawn) [Example 147, 1,1,1,3,3,3-hexafluoropropan-2-yl 5-[[3-methyl-2-(4-methylpiperazin-1-yl)phenyl]methyl]-octahydropyrrolo[3,4-c]pyrrole-2-carboxylate] was tested, and the inhibition at 1 µM [1] was > 75%, the IC50 [2] was > 10000 nM and the IC50 [3] was > 10000 nM. The inhibition at 1 µM [4] was < 25%, the inhibition at 1 µM [5] was < 25% and the IC50 [6] was 100 to 1000 nM.
